PMC6563050, “Involvement of TREK-1 Channel in Cell Viability of H9c2 Rat Cardiomyoblasts Affected by Bupivacaine and Lipid Emulsion” (Cells, 2019)

Target: T1, TREK-1 (TWIK-related potassium channel-1) (Rattus norvegicus, UniProt Q920B6)
T1 construct: gene Kcnk2
T1 sequence (Q920B6 1-426): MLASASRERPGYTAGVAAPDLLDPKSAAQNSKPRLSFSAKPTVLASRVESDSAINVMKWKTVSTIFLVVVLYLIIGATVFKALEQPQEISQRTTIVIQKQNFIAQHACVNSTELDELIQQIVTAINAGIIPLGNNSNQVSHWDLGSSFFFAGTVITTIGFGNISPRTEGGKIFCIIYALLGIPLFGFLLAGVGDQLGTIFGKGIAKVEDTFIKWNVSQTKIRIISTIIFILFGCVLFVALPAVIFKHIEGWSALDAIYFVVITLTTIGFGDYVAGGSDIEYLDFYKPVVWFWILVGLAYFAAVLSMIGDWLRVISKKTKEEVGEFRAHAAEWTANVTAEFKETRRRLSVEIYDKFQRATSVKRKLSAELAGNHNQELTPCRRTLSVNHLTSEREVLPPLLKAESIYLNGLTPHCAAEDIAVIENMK
Assay: whole-cell and inside-out single-channel patch clamp of TREK-1 overexpressed in HEK-293 cells
Type: cell-based

In the case of CCCCN1CCCCC1C(=O)Nc1c(C)cccc1C (stereo not shown) [bupivacaine], the IC50 is reported as 302 ± 17.6 µM.
